Laboratory results published in patent US12516081B2, “Anti-viral compounds and methods of use” (Metro International Biotech, LLC, priority 2020, dated 2026).
Like-named read-outs stand apart in the source and are kept apart here.

Columns and labels:
SARS-CoV-2, USA-WA1/2020 = assay: Antiviral assay: inhibition of SARS-CoV-2 cytopathic effect (neutral red) in Vero 76 cells; assay type: cell-based; settings: read-out: Anti-viral Assay (EC50)
NAD in murine liver = assay: In vivo NAD assay, mouse liver; settings: 500 mg/kg oral, mice
Procedure: (§1) FIG. 1 provides the mean composite NAD assayed concentration in mouse liver cells. The Y-axis is concentration in mmol/kg. […] The left-most bar at each time point is vehicle, the central bar is reference compound nicotinamide mononucleotide (NMN), and the right-most bar at each time point is Compound 2. Each compound is administered orally to mice at 500 mg/kg.
(§2) In vivo NAD and NAAD assay: Animals were dosed with 500 mg/kg of test compound or reference compound in vehicle.

[1] = system: NAAD in murine skeletal muscle; assay: In vivo NAAD assay, mouse skeletal muscle; settings: 500 mg/kg oral, mice, 8 hour time point, FIG. 2
Procedure: as §1, with “2” for “1”, “NAAD” for “NAD”, “skeletal muscle” for “liver”
as §2

[2] = concentration inhibiting CPE by 50%; i) and ii) are separate determinations

Compound: N#C[C@@]1(c2ccc3c(N)ncnn23)O[C@H](COP(=O)([O-])OC[C@H]2O[C@@H]([n+]3cccc(C(=O)O)c3)[C@H](O)[C@@H]2O)[C@@H](O)[C@H]1O [Compound 1, ((2R,3S,4R,5R)-5-(4-aminopyrrolo[2,1-f][1,2,4]triazin-7-yl)-5-cyano-3,4-dihydroxytetrahydrofuran-2-yl)methyl (((2R,3S,4R,5R)-5-(3-carboxy-1λ^4-pyridin-1-yl)-3,4-dihydroxytetrahydrofuran-2-yl)methyl)_phosphate]
- EC50 (SARS-CoV-2, USA-WA1/2020; Severe acute respiratory syndrome coronavirus 2, Vero 76, 120 h, concentration inhibiting CPE by 50%; Vero 76 cells, neutral red, day 5 post-infection; i) and ii) are separate determinations): 17 µM
- EC50 (SARS-CoV-2, USA-WA1/2020; concentration inhibiting CPE by 50%; Vero 76 cells, neutral red, day 5 post-infection; i) and ii) are separate determinations): 31 µM

Compound: NC(=O)c1ccc[n+]([C@@H]2O[C@H](COP(=O)([O-])O)[C@@H](O)[C@H]2O)c1 [Nicotinamide mononucleotide (NMN), Nicotinamide mononucleotide, reference compound]
- EC50 (SARS-CoV-2, USA-WA1/2020; [2]): > 2000 µM

Compound: CCC(CC)COC(=O)[C@H](C)N[P@](=O)(OC[C@H]1O[C@@](C#N)(c2ccc3c(N)ncnn23)[C@H](O)[C@@H]1O)Oc1ccccc1 [Remdesivir, reference compound]
- EC50 (SARS-CoV-2, USA-WA1/2020; Severe acute respiratory syndrome coronavirus 2, Vero 76, 120 h; concentration inhibiting CPE by 50%; i) and ii) are separate determinations): 1.9 to 6 µM

Compound: ((2R,3S,4R,5R)-5-(3-((((2R,3S,4R,5R)-5-(4-aminopyrrolo[2,1-f][1,2,4]triazin-7-yl)-5-cyano-3,4-dihydroxytetrahydrofuran-2-yl)methoxy)carbonyl)-1λ^4-pyridin-1-yl)-3,4-dihydroxytetrahydrofuran-2-yl)methyl hydrogen phosphate [Compound 2]
- Oral availability (NAD in murine liver): orally available
- NAD level in murine liver (NAD in murine liver; 8 hour time point, FIG. 1): boosted
- NAAD level in murine skeletal muscle [1]: boosted

Compound: NAR-2′C-Methyl-6-O-methyl-5′-guanosine ester [Compound 6]
- EC50 (SARS-CoV-2, USA-WA1/2020; [2]): > 100 µM

Compound: NAR-2′C-methyl 5′-uridine ester [Compound 4]
- EC50 (SARS-CoV-2, USA-WA1/2020; [2]): > 100 µM

Compound: NAR-2′C-methyl-5′-cytidine ester [Compound 5]
- EC50 (SARS-CoV-2, USA-WA1/2020; [2]): > 100 µM

Compound: NAR-2′C-methyl-5′-guanosine ester [Compound 3]
- EC50 (SARS-CoV-2, USA-WA1/2020; [2]): > 100 µM
